Assay results as given in paper PMC5465072 (Scientific Reports, 2017).
“Also recorded” adds a separate entry of the source. Square brackets hold non-standard residues; d marks the D form. Ends that are not written are not given here. Peptide text beside a SMILES is read from it. Phe(4-Cl) = N[C@@H](Cc1ccc(Cl)cc1)C(=O)O

Experiments:
[1] = biological target: His6-PA488–735 / GST-CMG2_38–218 interaction (UniProt P13423+P58335); assay: biochemical; design: species or system Bacillus anthracis PA / human CMG2
Chain of His6-PA488–735 / GST-CMG2_38–218 interaction (P13423 517-764 limits assumed): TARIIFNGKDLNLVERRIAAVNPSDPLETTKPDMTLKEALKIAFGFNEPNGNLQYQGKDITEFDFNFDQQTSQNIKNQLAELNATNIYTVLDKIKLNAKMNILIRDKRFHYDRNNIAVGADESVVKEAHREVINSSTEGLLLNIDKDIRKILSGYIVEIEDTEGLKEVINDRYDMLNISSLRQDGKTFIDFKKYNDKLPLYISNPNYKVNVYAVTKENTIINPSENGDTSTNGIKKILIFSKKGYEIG
Chain of His6-PA488–735 / GST-CMG2_38–218 interaction (P58335 38-218 limits assumed): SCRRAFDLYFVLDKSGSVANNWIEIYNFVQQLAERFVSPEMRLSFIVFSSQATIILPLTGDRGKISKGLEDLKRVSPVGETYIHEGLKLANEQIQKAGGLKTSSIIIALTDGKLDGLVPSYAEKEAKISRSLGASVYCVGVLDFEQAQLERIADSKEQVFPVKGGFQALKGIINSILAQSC

CMG2_38–218 = CMG2_38–218 (Homo sapiens, UniProt P58335); assay: biochemical; format: binding
Chain of CMG2_38–218 (P58335 38-218): as the sequence (P58335 38-218 limits assumed) above

[2] = biological target: His6-PA596–735 / GST-CMG2_38–218 interaction (Homo sapiens, UniProt P58335); assay: biochemical; format: biochemical, Bacillus anthracis PA / human CMG2
Chain of His6-PA596–735 / GST-CMG2_38–218 interaction (P58335 38-218 limits assumed): as above

J774 cells = format: cell-based

H-CMNHAPA-OH [CMNHAPA]
IC50 [1]: 522 ± 47.8 µM
fold loss of activity in PA/CMG2 ELISA over the parent peptide CMNHFPA [1]: 10 fold

CLRFT [CLRFT]
Kd (CMG2_38–218): 30.2 ± 1.2 µM
IC50 [1]: 77.1 ± 9.5 µM
IC50 [2]: 71.3 ± 6.5 µM

CLRPT [CLRPT]
IC50 [1]: 153 ± 2.9 µM

(4-Cl-F)CRTL
protection of J774 cells from lethal toxin (J774 cells): No protective effect; also recorded: no such protection

FCRTL
IC50 for disruption of the interaction of His6-PA488–735 and GST-CMG2_38–218 [1]: inactive

HPCNAMF [HPCNAMF]
IC50 [1]: 153 ± 9.3 µM
fold loss of activity in PA/CMG2 ELISA over the parent peptide CMNHFPA [1]: 3 fold

CMNHFPA [CMNHFPA]
IC50 [1]: 49.8 ± 2.7 µM
IC50 for disruption of the interaction of His6-PA596–735 and GST-CMG2_38–218 [2]: not active; also recorded: lost all activity

CC(C)C[C@H](NC(=O)[C@@H](N)CS)C(=O)N[C@@H](CCCNC(=N)N)C(=O)N[C@@H](Cc1ccc(Cl)cc1)C(=O)N[C@H](C(=O)O)[C@@H](C)O [CLR(4-Cl-F)T] (H-CLR[Phe(4-Cl)]T-OH)
concentration that protects J774 cells from lethal toxin (J774 cells): ≥ 50 µM
